One assay concerns dallisgrass. Briefly: Post-emergence field plot test, % damage to natural dallisgrass infestation. Conditions: with non-ionic surfactant, rates g/ha foram 28.78, TCM 15, halo 69.9; for Trial 1 (16 WAT) % damage: 16 weeks after treatment; for Trial 2 (42 DAA) % damage: 42 days after application; for Trial 3 (48 DAA) % damage: 48 days after application. Format: in vivo, dallisgrass (Paspalum dilatatum). An excerpt:
Plots approximately 2-4.6 m^2 in size are contain a natural infestion of the weed dallisgrass. Using a CO2 propelled backpack sprayer, thiencarbazone-methyl (TCM), foramsulfuron (foram), and halosulfuron-methyl (halo) are applied on their own and in a combination, by post-emergence method, to the dallisgrass, at the application rates specified. The application rates for each compound and combination are equivalent to each other. All treatments included a non-ionic surfactant. After 42 days, 48 days, and 16 weeks after treatment, the degree of damage to the plants is rated in % damage in comparison to the development of the untreated control.
(§1) The FIGURES denote: • 0%=no effect (like untreated control) • 100%=total destruction.

The subject of the next assay is Tall Fescue. Briefly: Glasshouse post-emergence test, % damage to Tall Fescue. Format: in vivo, tall fescue (Schedonorus phoenix/Festuca arundinacea). Conditions: NIS 0.25 % V/V.
Source text: Glasshouse plots approximately 1.1 m^2 in size are planted with the weed Tall Fescue. Using a 1 nozzle motorized track sprayer, thiencarbazone-methyl (BYH18636), foramsulfuron (Revolver●), and halosulfuron-methyl (Sedgehammer●) are applied on their own and in combination with each other (a combination of thiencarbazone-methyl, foramsulfuron, and halosulfuron-methyl is SP 102000025052), by post-emergence method, to the weed Tall Fescue, at the application rates specified. The application rates for each compound and combination are equivalent to each other.
After 14 and 27 days after treatment, the degree of damage to the plants is rated in % damage in comparison to the development of the untreated control.
as §1

Setting [1] is: higher rates: TCM 22.2, foram 44.37, halo 69 G A/HA (blend 135.6 G A/HA, 3.2 OZ/A).
The mark [2] stands for this setting: lower rates: TCM 14.58, foram 29.12, halo 45.3 G A/HA (blend 89 G A/HA, 2.1 OZ/A).

`COc1cc(OC)nc(NC(=O)NS(=O)(=O)c2cc(NC=O)ccc2C(=O)N(C)C)n1` [foramsulfuron]: in the assay with dallisgrass, the “Trial 1 (16 WAT) % damage” value stood at 31.5%, the “Trial 2 (42 DAA) % damage” value is recorded as 76.7% and the “Trial 3 (48 DAA) % damage” value is on record as 35%.

Turning to `COC(=O)c1c(Cl)nn(C)c1S(=O)(=O)NC(=O)Nc1nc(OC)cc(OC)n1` [halosulfuron-methyl], in the assay with dallisgrass, the “Trial 1 (16 WAT) % damage” value worked out at 0%, the “Trial 2 (42 DAA) % damage” value turned out to be 0% and the “Trial 3 (48 DAA) % damage” value was −9%.

As to `COC(=O)c1csc(C)c1S(=O)(=O)NC(=O)n1nc(OC)n(C)c1=O` [thiencarbazone-methyl], in the assay on dallisgrass, the “Trial 1 (16 WAT) % damage” value turned out to be 85.25%, the “Trial 2 (42 DAA) % damage” value is recorded as 65% and the “Trial 3 (48 DAA) % damage” value was found to be 51%. Moreover, in the assay on Tall Fescue (setting [1]), the “0 DAA % damage” value turned out to be 0%, the “14 DAA % damage” value was determined as 42.5% and the “27 DAA % damage” value worked out at 75%. For the same compound, in the assay on Tall Fescue (setting [2]), the “0 DAA % damage” value stood at 0%, the “14 DAA % damage” value was 26.3% and the “27 DAA % damage” value came to 52.5%.

The values are drawn from patent US10231456B2, “Methods and compositions for controlling weed infestation and improving grass quality” (BAYER CROPSCIENCE LP, priority 2012, dated 2019).
